# Laboratory results published in patent publication US20110183389A1, “PRODUCTION OF LACTIC ACID FROM HEMICELLULOSE EXTRACTS” (priority 2009, published 2011).
# Where two headings read alike, the source gives them in different places.
# Test system: Bacillus coagulans MXL-9
# Settings: for fermentation time: control consumed xylose within 14 hours; for Ferment Time / Acetic Acid Produced / Ethanol Produced / Formic Acid Produced / Lactic Acid Prod. Rate / Lactic Acid Produced / Lactic Acid Yield / Total Products Yield / Xylose Consumed: pH 6.5, 50° C.
# [1] = 30 g/L inhibitor, 20 g/L xylose
# [2] = inhibitor conc. 10 g/L, 20 g/L xylose
# [3] = inhibitor conc. 20 g/L, 20 g/L xylose
# [4] = inhibitor conc. 30 g/L, 20 g/L xylose
Compound,Ferment Time [2] [h],Acetic Acid Produced (inhibitor conc. 10 g/L) [g/L],Ethanol Produced (inhibitor conc. 10 g/L) [g/L],Formic Acid Produced (inhibitor conc. 10 g/L) [g/L],Lactic Acid Prod. Rate (inhibitor conc. 10 g/L) [g/L/h],Lactic Acid Produced (inhibitor conc. 10 g/L) [g/L],Lactic Acid Yield (inhibitor conc. 10 g/L) [%],Total Products Yield (inhibitor conc. 10 g/L) [%],Xylose Consumed (inhibitor conc. 10 g/L) [g/L],Ferment Time [3] [h],Acetic Acid Produced (inhibitor conc. 20 g/L) [g/L],Ethanol Produced (inhibitor conc. 20 g/L) [g/L],Formic Acid Produced (inhibitor conc. 20 g/L) [g/L],Lactic Acid Prod. Rate (inhibitor conc. 20 g/L) [g/L/h],Lactic Acid Produced (inhibitor conc. 20 g/L) [g/L],Lactic Acid Yield (inhibitor conc. 20 g/L) [%],Total Products Yield (inhibitor conc. 20 g/L) [%],Xylose Consumed (inhibitor conc. 20 g/L) [g/L],Ferment Time [4] [h],Acetic Acid Produced (inhibitor conc. 30 g/L) [g/L],other results
"CC(=O)O [HAc, acetic acid]",17,0.0,1.0,1.1,1.0,17.3,81.0,90.7,21.4,22,0.0,0.8,0.5,0.9,19.3,93.6,99.8,20.6,60,0.0,fermentation time (10 g/L inhibitor): complete in under a day; fermentation time (20 g/L inhibitor): complete in under a day; lag phase [1]: longer lag phase; overall lactic acid yield [1]: not diminished; fermentation time (30 g/L inhibitor): two days; Ethanol Produced (inhibitor conc. 30 g/L): 0.4 g/L; Formic Acid Produced (inhibitor conc. 30 g/L): 0.4 g/L; Lactic Acid Prod. Rate (inhibitor conc. 30 g/L): 0.3 g/L/h; Lactic Acid Produced (inhibitor conc. 30 g/L): 18.5 g/L; Lactic Acid Yield (inhibitor conc. 30 g/L): 91.4%; Total Products Yield (inhibitor conc. 30 g/L): 95.3%; Xylose Consumed (inhibitor conc. 30 g/L): 20.2 g/L
"[Na] [Na, sodium]",32,0.8,0.0,1.3,0.6,18.8,83.1,92.4,22.4,62,0.7,0.0,1.3,0.3,19.6,85.9,94.5,22.7,150,0.0,"lag time (20 g/L inhibitor, xylose): increased the lag time; overall product yield (20 g/L inhibitor, xylose): did not affect overall product yield; inhibition of xylose fermentation (30 g/L inhibitor): completely inhibitory; cell growth (30 g/L inhibitor, over the course of 6 days): no cell growth occurred; Ethanol Produced (inhibitor conc. 30 g/L): 0.0 g/L; Formic Acid Produced (inhibitor conc. 30 g/L): 0.0 g/L; Lactic Acid Prod. Rate (inhibitor conc. 30 g/L): 0.0 g/L/h; Lactic Acid Produced (inhibitor conc. 30 g/L): 0.0 g/L; Lactic Acid Yield (inhibitor conc. 30 g/L): 2.6%; Total Products Yield (inhibitor conc. 30 g/L): 2.6%; Xylose Consumed (inhibitor conc. 30 g/L): 0.8 g/L"
